This passage reports Difference, Accumulation and DA utilization results from ChEMBL document CHEMBL1123692, “Dopamine autoreceptor agonists: resolution and pharmacological activity of 2,6-diaminotetrahydrobenzothiazole and an aminothiazole analogue of apomorphine” (J Med Chem, 1987).

In assay [1] the test system is Rattus norvegicus. Put plainly: Percent difference of L-DOPA accumulation when compared to saline at a dose of 10 mg/kg. In kind it is functional.
The test system of assay [2] is Rattus norvegicus. The assay can be described thus: Accumulation of nmol of L-DOPA/g of tissue weight corpus striatum elicited by injection of GBL and NSD at a dose of 10 mg/kg. Format: functional.
Assay [3] deals with Rattus norvegicus. The assay can be described thus: Percent difference of DA utilization when compared to saline at a dose of 10 mg/kg. Format: functional.
Assay [4] concerns Rattus norvegicus. Put plainly: Utilization of DA/g by total brain without cerebellum following alpha-MT (250 mg/kg) at a dose of 10 mg/kg. In kind it is functional.
Assay [5] has as its system Rattus norvegicus. The assay can be described thus: Percent difference of L-DOPA accumulation when compared to saline at a dose of 1.0 mg/kg.

With `CCCN1CCCC2Cc3nc(N)sc3CC21` (stereo unspecified), the results for the Difference in the assay with Rattus norvegicus [1] and in the assay on Rattus norvegicus [3] were -62% and 75%, respectively. In the assay on Rattus norvegicus [2], the Accumulation came out at 9.1. Also, in the assay with Rattus norvegicus [4], the DA utilization amounted to 4863.

On to `CCCN[C@H]1CCc2nc(N)sc2C1.Cl.Cl`, for which the Difference in the assay on Rattus norvegicus [5] is -53%. This compound returned an Accumulation with Rattus norvegicus [2] of 11.3. Also, the DA utilization in the assay on Rattus norvegicus [4] was 6417.

Turning to `Cl.Cl.Nc1nc2c(s1)C[C@H](N)CC2`, the Difference in the assay with Rattus norvegicus [3] is -12%. This compound had a DA utilization with Rattus norvegicus [4] of 2441.

For the compound `CCCN[C@@H]1CCc2nc(N)sc2C1.Cl.Cl`, the Difference in the assay with Rattus norvegicus [5] was -21%; in the assay with Rattus norvegicus [3] it was 84%. Further, in the assay with Rattus norvegicus [2], the Accumulation is 19. The compound further came in with a DA utilization in the assay with Rattus norvegicus [4] of 5104.

Take `Cl.Cl.Nc1nc2c(s1)C[C@@H](N)CC2`: the Difference in the assay with Rattus norvegicus [3] was -17%. In the assay with Rattus norvegicus [4], the DA utilization turned out to be 2317.

Consider `CN1CCc2cccc3c2C1Cc1sc(N)nc1-3` (racemic), for which the values for the Difference in the assay on Rattus norvegicus [1] and with Rattus norvegicus [3] were -38% and 34%, respectively. In the assay with Rattus norvegicus [2], this compound displayed an Accumulation of 14.9. For the same compound, the DA utilization with Rattus norvegicus [4] amounted to 3721.

As to `CN1CCc2cccc3c2C1Cc1sc(N)nc1-3.Cl.Cl` (single isomer, unassigned; (+)), the Difference was 1% in the assay on Rattus norvegicus [1] (10 mg/kg) and -12% in the assay with Rattus norvegicus [3] (10 mg/kg). In addition, the Accumulation with Rattus norvegicus [2] (10 mg/kg) came out at 24.4. Also, the DA utilization with Rattus norvegicus [4] (10 mg/kg) was determined as 2441.

As for `CN1CCc2cccc3c2C1Cc1sc(N)nc1-3.Cl.Cl` (single isomer, unassigned; (-)), the Difference in the assay with Rattus norvegicus [1] (10 mg/kg) is listed as -16%; in the assay on Rattus norvegicus [3] (10 mg/kg), 41%. In the assay on Rattus norvegicus [2] (10 mg/kg), the Accumulation was determined as 20.1. Further, the DA utilization in the assay with Rattus norvegicus [4] (10 mg/kg) was determined as 3917.

`CN1CCc2cccc3c2[C@H]1Cc1ccc(O)c(O)c1-3` [APOMORPHINE]: the figures for the Difference in the assay with Rattus norvegicus [1] and in the assay with Rattus norvegicus [3] were -63% and 44%, respectively. The same compound had an Accumulation with Rattus norvegicus [2] of 8.9. Moreover, the DA utilization in the assay on Rattus norvegicus [4] turned out to be 4008.
